Experimental data published in patent US5073627A (Immunex Corporation, priority 1990, dated 1991).

How the values were obtained:
[1] = system: unfractionated human bone marrow; assay: Human bone marrow colony formation (CFU-GEMM, CFU-GM, BFU-E); type: cell-based; details: for Colonies (Mean ± S.D.) CFU-GM: agar
Protocol: Non-adherent, low density, T cell deplated cultures of human bone marrow were plated in methylcellulose (BFU-E, CFU-GEMM, 40,000 cells per plate) or agar (CFU-GM; 40,000 cells per culture) as described by Lu et al., Blood 61:250 (1983). Methylcellulose cultures contained 1 unit per plate erythropoietin and accounts for the background of 48±2 BFU-E in the absence of cytokine. Cultures were incubated in a 5% O2, 5% CO2, 90% N2 atmosphere for 14 days and counted with an inverted microscope.

[2] = system: AML-193 cells; assay: Thymidine incorporation assay, proliferation of AML-193 cells; type: cell-based, human; details: for Specific Activity: one unit = amount of growth factor for half-maximal thymidine incorporation, AML-193 cells
Protocol: The cells were split twice weekly and were seeded into fresh medium at a density of 300,000/ml.
These samples were then serially diluted by 3-fold through the additional 11 wells of the microtitre plate. […] Tritiated thymidine ([…]) was added to each well for an additional 6 hours of incubation and the samples were harvested with an automated sample harvester and counted by liquid scintillation. One unit of activity is defined as the amount of growth factor required to stimulate half-maximal thymidine incorporation.

[3] = target: T1, receptors on KG-1 cells (GM-CSF/IL-3 receptors) (Homo sapiens, UniProt P26951+P32927); assay: Inhibition of 125I-IL-3 binding to KG-1 cells; details: for KI value on KG-1 cells relative to JM-1 cells: Table F data
T1 construct: endogenous in cells; host or cells: KG-1
T1 sequence (P26951 19-378): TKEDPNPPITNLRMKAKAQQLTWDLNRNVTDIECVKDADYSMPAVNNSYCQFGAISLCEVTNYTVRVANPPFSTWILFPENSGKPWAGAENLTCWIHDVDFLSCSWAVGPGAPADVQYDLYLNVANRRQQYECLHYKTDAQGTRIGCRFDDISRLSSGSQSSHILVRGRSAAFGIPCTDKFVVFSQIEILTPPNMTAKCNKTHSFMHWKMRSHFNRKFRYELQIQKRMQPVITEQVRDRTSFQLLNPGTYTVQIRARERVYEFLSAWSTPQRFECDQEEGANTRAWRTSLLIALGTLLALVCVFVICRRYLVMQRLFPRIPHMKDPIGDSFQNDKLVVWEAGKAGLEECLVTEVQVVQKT
T1 sequence (P32927 17-897): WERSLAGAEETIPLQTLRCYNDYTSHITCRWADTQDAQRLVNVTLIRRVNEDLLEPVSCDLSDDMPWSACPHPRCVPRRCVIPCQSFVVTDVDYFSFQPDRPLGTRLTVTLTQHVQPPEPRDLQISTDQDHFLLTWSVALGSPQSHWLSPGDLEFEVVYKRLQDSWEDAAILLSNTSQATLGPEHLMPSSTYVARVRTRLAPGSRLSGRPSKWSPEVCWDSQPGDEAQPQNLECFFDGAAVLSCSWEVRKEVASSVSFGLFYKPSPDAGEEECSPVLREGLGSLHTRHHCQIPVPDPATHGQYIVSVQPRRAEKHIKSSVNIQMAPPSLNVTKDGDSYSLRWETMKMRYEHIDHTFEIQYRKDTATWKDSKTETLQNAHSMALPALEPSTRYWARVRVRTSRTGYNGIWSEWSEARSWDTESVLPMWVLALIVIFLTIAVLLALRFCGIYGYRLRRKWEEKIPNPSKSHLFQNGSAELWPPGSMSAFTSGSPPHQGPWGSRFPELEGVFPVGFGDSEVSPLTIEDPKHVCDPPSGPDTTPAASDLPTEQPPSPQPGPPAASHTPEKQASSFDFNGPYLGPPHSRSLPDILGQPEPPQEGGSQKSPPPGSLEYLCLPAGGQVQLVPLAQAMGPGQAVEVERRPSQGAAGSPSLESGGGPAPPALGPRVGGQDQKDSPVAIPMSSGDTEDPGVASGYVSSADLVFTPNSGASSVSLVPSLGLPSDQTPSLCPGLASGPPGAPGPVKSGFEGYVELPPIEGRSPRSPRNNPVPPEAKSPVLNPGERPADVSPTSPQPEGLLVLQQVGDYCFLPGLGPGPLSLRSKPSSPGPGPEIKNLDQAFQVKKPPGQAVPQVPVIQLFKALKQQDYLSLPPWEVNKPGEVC
Protocol: (§1) Briefly, 2-10 μg of recombinant protein in 50 μl 0.2M sodium phosphate, pH 7.2, was combined with 50 μl enzymobead reagent, 2 mCi of sodium iodide in 20 μl of 0.05M sodium phosphate pH 7 and 10 μl of 2.5% β-D-glucose. After 10 min at 25° C., sodium azide (10 μl of 50 mM) and sodium metabisulfite (10 μl of 5 mg/ml) were added sequentially and incubation continued for 5 minutes at 25° C.
(§2) B. Binding Assays. Binding assays were performed using JM-1, KG-1, HL-60 and AML-193 cells.

[4] = target: T2, receptors on AML-193 cells (GM-CSF/IL-3 receptors) (Homo sapiens, UniProt P26951+P32927); assay: Inhibition of 125I-IL-3 binding to AML-193 cells; details: normalized data, JM-1 as standard
T2 construct: endogenous in cells; host or cells: AML-193
T2 sequence (P26951 19-378): T1 sequence (P26951 19-378)
T2 sequence (P32927 17-897): T1 sequence (P32927 17-897)
Protocol: as §1, §2

[5] = Table D, 312 pg/ml (GM-CSF + IL-3: 312 + 312), 14 days
[6] = Table D, 625 pg/ml (GM-CSF + IL-3: 625 + 625), 14 days
[7] = Table D, 625 pg/ml (GM-CSF + IL-3: 625 + 625), with erythropoietin, background 48 ± 2
[8] = Table D, 1250 pg/ml (GM-CSF + IL-3: 1250 + 1250), 14 days
[9] = Table D, 1250 pg/ml (GM-CSF + IL-3: 1250 + 1250), with erythropoietin, background 48 ± 2
[10] = Table D, 2500 pg/ml (GM-CSF + IL-3: 2500 + 2500), 14 days
[11] = Table D, 2500 pg/ml (GM-CSF + IL-3: 2500 + 2500), with erythropoietin, background 48 ± 2
[12] = Table D, 5000 pg/ml (GM-CSF + IL-3: 5000 + 5000), 14 days
[13] = Table D, 5000 pg/ml (GM-CSF + IL-3: 5000 + 5000), with erythropoietin, background 48 ± 2
[14] = Table D, 156 pg/ml (GM-CSF + IL-3: 156 ± 156 [sic]), 14 days

Substance: GM-CSF: recombinant human granulocyte-macrophage colony-stimulating factor expressed in yeast, comparator
- Colonies (Mean ± S.D.) CFU-GEMM [1, 5]: 0 colonies
- Colonies (Mean ± S.D.) CFU-GM [1, 5]: 16 ± 1 colonies
- Colonies (Mean ± S.D.) CFU-GEMM [1, 6]: 0.3 ± 0.3 colonies
- Colonies (Mean ± S.D.) CFU-GM [1, 6]: 21 ± 2 colonies
- Colonies (Mean ± S.D.) BFU-E [1, 7]: 46 ± 3 colonies
- Colonies (Mean ± S.D.) CFU-GEMM [1, 8]: 1.5 ± 0.3 colonies
- Colonies (Mean ± S.D.) CFU-GM [1, 8]: 33 ± 2 colonies
- Colonies (Mean ± S.D.) BFU-E [1, 9]: 47 ± 4 colonies
- Colonies (Mean ± S.D.) CFU-GEMM [1, 10]: 3.5 ± 0.7 colonies
- Colonies (Mean ± S.D.) CFU-GM [1, 10]: 42 ± 2 colonies
- Colonies (Mean ± S.D.) BFU-E [1, 11]: 61 ± 1 colonies
- Colonies (Mean ± S.D.) CFU-GEMM [1, 12]: 6.8 ± 0.6 colonies
- Colonies (Mean ± S.D.) CFU-GM [1, 12]: 42 ± 4 colonies
- Colonies (Mean ± S.D.) BFU-E [1, 13]: 63 ± 3 colonies
- Specific Activity [2]: 9.74 × 10^4 units/mg

Substance: huGM-CSF[Leu^23 Asp^27 Glu^39 ]/Gly4 SerGly5 Ser/huIL-3[Pro^8 Asp^15 Asp^70 ] [GM-CSF/IL-3]
- KI value on KG-1 cells relative to JM-1 cells [3]: 10-20 fold
- Binding affinity to KG-1 cells relative to JM-1 cells ([3]; normalized data, JM-1 as standard): 41.0 fold
- BFU-E, CFU-GM and CFU-GEMM colony formation relative to IL-3 or GM-CSF alone, or IL-3 and GM-CSF combined ([1]; FIG. 3A-3D): enhances
- Colonies (Mean ± S.D.) CFU-GEMM ([1]; Table D, 78 pg/ml, 14 days): 0 colonies
- Colonies (Mean ± S.D.) CFU-GM ([1]; Table D, 78 pg/ml, 14 days): 16 ± 2 colonies
- Colonies (Mean ± S.D.) BFU-E ([1]; Table D, 78 pg/ml, with erythropoietin, background 48 ± 2): 50 ± 3 colonies
- Colonies (Mean ± S.D.) CFU-GEMM [1, 14]: 1.0 ± 0.4 colonies
- Colonies (Mean ± S.D.) CFU-GM [1, 14]: 24 ± 3 colonies
- Colonies (Mean ± S.D.) BFU-E ([1]; Table D, 156 pg/ml (GM-CSF + IL-3: 156 ± 156 [sic]), with erythropoietin, background 48 ± 2): 49 ± 6 colonies
- Colonies (Mean ± S.D.) CFU-GEMM [1, 5]: 2.5 ± 0.7 colonies
- Colonies (Mean ± S.D.) CFU-GM [1, 5]: 35 ± 2 colonies
- Colonies (Mean ± S.D.) BFU-E ([1]; Table D, 312 pg/ml (GM-CSF + IL-3: 312 + 312), with erythropoietin, background 48 ± 2): 70 ± 4 colonies
- Colonies (Mean ± S.D.) CFU-GEMM [1, 6]: 4.3 ± 0.5 colonies
- Colonies (Mean ± S.D.) CFU-GM [1, 6]: 52 ± 6 colonies
- Colonies (Mean ± S.D.) BFU-E [1, 7]: 83 ± 5 colonies
- Colonies (Mean ± S.D.) CFU-GEMM [1, 8]: 6.8 ± 0.5 colonies
- Colonies (Mean ± S.D.) CFU-GM [1, 8]: 59 ± 2 colonies
- Colonies (Mean ± S.D.) BFU-E [1, 9]: 125 ± 8 colonies
- Colonies (Mean ± S.D.) CFU-GEMM [1, 10]: 10.3 ± 0.9 colonies
- Colonies (Mean ± S.D.) CFU-GM [1, 10]: 74 ± 1 colonies
- Colonies (Mean ± S.D.) BFU-E [1, 11]: 119 ± 5 colonies
- Colonies (Mean ± S.D.) CFU-GEMM [1, 12]: 10.3 ± 1 colonies
- Colonies (Mean ± S.D.) CFU-GM [1, 12]: 97 ± 2 colonies
- Colonies (Mean ± S.D.) BFU-E [1, 13]: 107 ± 5 colonies
- Colonies (Mean ± S.D.) CFU-GM ([1]; Table E, 78 pg/ml): 2 ± 0.3 colonies
- Colonies (Mean ± S.D.) CFU-GEMM ([1]; Table E, 78 pg/ml, media control 2 ± 0): 2.0 ± 0 colonies
- Colonies (Mean ± S.D.) BFU-E ([1]; Table E, 78 pg/ml, media control 44 ± 4): 44 ± 1 colonies
- Colonies (Mean ± S.D.) CFU-GM ([1]; Table E, 156 pg/ml (GM-CSF + IL-3: 156 + 156)): 5 ± 1 colonies
- Colonies (Mean ± S.D.) CFU-GEMM ([1]; Table E, 156 pg/ml, media control 2 ± 0): 2.0 ± 1 colonies
- Colonies (Mean ± S.D.) BFU-E ([1]; Table E, 156 pg/ml, media control 44 ± 4): 47 ± 3 colonies
- Colonies (Mean ± S.D.) CFU-GM ([1]; Table E, 312 pg/ml (GM-CSF + IL-3: 312 + 312)): 8 ± 1 colonies
- Colonies (Mean ± S.D.) CFU-GEMM ([1]; Table E, 312 pg/ml, media control 2 ± 0): 5.5 ± 0.5 colonies
- Colonies (Mean ± S.D.) BFU-E ([1]; Table E, 312 pg/ml, media control 44 ± 4): 71 ± 1 colonies
- Colonies (Mean ± S.D.) CFU-GM ([1]; Table E, 625 pg/ml (GM-CSF + IL-3: 625 + 625)): 15 ± 2 colonies
- Colonies (Mean ± S.D.) CFU-GEMM ([1]; Table E, 625 pg/ml (GM-CSF + IL-3: 625 + 625), media control 2 ± 0): 6.0 ± 1 colonies
- Colonies (Mean ± S.D.) BFU-E ([1]; Table E, 625 pg/ml (GM-CSF + IL-3: 625 + 625), media control 44 ± 4): 97 ± 2 colonies
- Colonies (Mean ± S.D.) CFU-GM ([1]; Table E, 1250 pg/ml (GM-CSF + IL-3: 1250 + 1250)): 23 ± 2 colonies
- Colonies (Mean ± S.D.) CFU-GEMM ([1]; Table E, 1250 pg/ml (GM-CSF + IL-3: 1250 + 1250), media control 2 ± 0): 9.0 ± 0 colonies
- Colonies (Mean ± S.D.) BFU-E ([1]; Table E, 1250 pg/ml (GM-CSF + IL-3: 1250 + 1250), media control 44 ± 4): 127 ± 7 colonies
- Colonies (Mean ± S.D.) CFU-GM ([1]; Table E, 2500 pg/ml (GM-CSF + IL-3: 2500 + 2500)): 45 ± 5 colonies
- Colonies (Mean ± S.D.) CFU-GEMM ([1]; Table E, 2500 pg/ml (GM-CSF + IL-3: 2500 + 2500), media control 2 ± 0): 10.0 ± 1 colonies
- Colonies (Mean ± S.D.) BFU-E ([1]; Table E, 2500 pg/ml (GM-CSF + IL-3: 2500 + 2500), media control 44 ± 4): 125 ± 10 colonies
- Colonies (Mean ± S.D.) CFU-GM ([1]; Table E, 5000 pg/ml (GM-CSF + IL-3: 5000 + 5000)): 43 ± 5 colonies
- Potency in enhancing proliferation of unfractionated human bone marrow cells ([1]; summary of Tables D and E): equivalent in potentcy to a mixture of GM-CSF and IL-3
- Binding affinity to AML-193 cells relative to JM-1 cells [4]: 11.1 fold
- Specific activity relative to IL-3 or GM-CSF alone or GM-CSF plus IL-3 combined ([2]; AML-193 thymidine incorporation): approximately 10 fold
- Specific Activity [2]: 1.81 × 10^6 units/mg

Substance: huIL-3[Pro^8 Asp^15 Asp^70 ]/huGM-CSF[Leu^23 Asp^27 Glu^39 ] [IL-3/GM-CSF]
- KI value on KG-1 cells relative to JM-1 cells [3]: 10-20 fold
